Data on one compound can be found in paper PMC6429055, “Synthesis, Photochemical and In Vitro Cytotoxic Evaluation of New Iodinated Aminosquaraines as Potential Sensitizers for Photodynamic Therapy” (Molecules, 2019).

The nature of series [1]: Fluorescence quantum yield. Particulars: In CHCl3. Format: physicochemical. An excerpt:
As expected, due to the covalent link between iodine and the aminosquaraine, a strong heavy atom effect can be observed in all cases. This effect is emphasized in the case of the bis(hydroxyethyl)amino substituent group (dye 5c).

Series [2] deals with HeLa, HepG2, MCF-7 and NCI-H460 cell lines. Description: SRB growth inhibition across the human tumor cell line panel, dark vs irradiation (text summaries). Particulars: Homo sapiens, HeLa; dark; inactive within the range of concentrations used; read-out: GI50 in the dark, all cell lines with exception of HeLa. Format: cell-based. The method, then:
In this representative example, the growth inhibition in the dark was less than 20% in more than 75% of the assays.
(§1) Stock solutions of the aminosquaraines 5a–e with different concentrations (0.0375 μM, 0.15 μM, 0.6 μM, 6 μM, 12 μM, 25 μM, 50 μM, 500 μM) were prepared using a solution of 3% DMSO in DMEM and kept at−20 °C. Prior to the in vitro assays diluted solutions were prepared with the same solvent to obtain solutions with final concentrations of 0.03 μM, 0.3 μM, 0.6 μM, 1.25 μM, 2.5 μM and 25 μM.
(§2) The cytotoxicity of the squaraine dyes was tested in the dark and under irradiation. For irradiation of the cells a halogen/tungsten lamp (24 V and 250 W, Osram, Carnaxide, Portugal) was used with a fluence rate of […] (measured with an ILT 1400-A radiometer equipped with a SEL033 detector, ILT, Peabody, MA, USA). The cells were irradiated continuously for 30 min. A 3% aqueous solution of K2Cr2O7 was placed between the lamp and the cells as a liquid cut off filter to remove light of wavelength shorter than ~500 nm. The temperature to which the cells were exposed was carefully monitored to guarantee cell viability.
(§3) Four human tumor cell lines were used: MCF-7 (breast adenocarcinoma), NCI-H460 (non-small cell lung carcinoma), HeLa (cervical carcinoma) and HepG2 (hepatocellular carcinoma) from DSMZ (Leibniz-Institut DSMZ-Deutsche Sammlung von Mikroorganismen und Zellkulturen GmbH, Mönchengladbach, Germany). Cells were routinely maintained as adherent cell cultures in RPMI-1640 medium containing 10% heat-inactivated FBS and 2 mM glutamine at […], in a humidified air incubator containing 5% CO2. Each cell line was plated at an appropriate density (7.5 × 10^3 cells/well for MCF-7 and NCI-H460, and 1.0 × 10^4 cells/well for HeLa and HepG2) in 96-well plates, allowed to attach for 24 h and then treated with different concentrations of each squaraine dye. Controls were set with the cells in the absence of the dyes in 3% DMSO in DMEM and in the growth medium only. After the incubation step (24 h), the cells were submitted to the photodynamic treatment for 30 min. Controls in the absence of light were performed on every test. Neither DMSO alone, nor light alone, nor the combination of both induced toxicity on the cells. Then, the growth medium was changed and the cells were incubated for further 24 h. Following this incubation period, the adherent cells were fixed by adding cold 10% TCA (100 µL) and incubated for 60 min at 4 °C. Plates were then washed with deionized water and subsequently dried. SRB solution (0.1% in 1% acetic acid, 100 µL) was then added to each plate well and incubated for 30 min at room temperature. Unbound SRB was removed by washing with 1% acetic acid. Plates were air dried, the bound SRB was solubilized with 10 mM Tris (200 µL) and the absorbance was measured at 540 nm in an ELX800 Microplate Reader (Bio-Tek Instruments Inc., Winooski, VT, USA). The results were expressed in GI50 values, which correspond to the concentration of dye that causes 50% inhibition of cell growth. All the assays were performed in duplicate. Ellipticine was used as standard.

The test system of series [3] is MCF-7 (breast adenocarcinoma). Description: SRB cytotoxicity, dark and after irradiation (photodynamic treatment). The conditions noted are these: Homo sapiens, mean ± SD. Format: cell-based. The method, then:
as §1, §2, §3

The subject of series [4] is NCI-H460 (non-small cell lung carcinoma). Described as above. Format: cell-based. The conditions noted are these: Homo sapiens, mean ± SD. The method, then: as §1, §2, §3
The test system of series [5] is HepG2 (hepatocellular carcinoma). The description is as above. Particulars: Homo sapiens, mean ± SD. The format is cell-based. The method, then:
as §1, §2, §3

Series [6] concerns HeLa (cervical carcinoma). The series is described as above. The format is cell-based. The conditions noted are these: Homo sapiens, mean ± SD. The method, then: as §1, §2, §3
Series [7] in a line: Singlet oxygen formation quantum yield (phosphorescence emission at ~1270 nm vs phenazine standard). Particulars: In CHCl3, excitation 337 nm. The format is physicochemical. The method, then: The evaluation of the photosensitizing efficiency of the aminosquaraine dyes was performed in chloroform, by determining the singlet oxygen formation quantum yields (ΦΔ). Phenazine was used as standard. The phosphorescence emission of singlet oxygen generated by the sensitizers at approximately 1270 nm is presented in Figure 2 and the determined quantum yields are summarized in Table 1.
These ΦΔ values were obtained by a simple comparison of the integrated areas determined for the standard and samples, using the same OD at the excitation wavelength. For each determination an average of 100 phosphorescence spectra were used. […] As previously reported, the amino group in the squaric ring enhances singlet oxygen generation efficiency when compared with the unsubstituted zwitterionic dye 3. […] This is related with the intramolecular charge transfer (ICT) mechanism which provides a non-radiative deactivation pathway, therefore decreasing the singlet oxygen formation quantum yields ([44] and references therein).
The singlet oxygen measurement set-up was assembled in our laboratory as previously described. As an excitation source we used a nitrogen laser, excitation wavelength = 337 nm. The detector was an InGaAs CCD (model i-Dus from Andor Technology Limited, Belfast, UK) working at low temperature (−60 °C) coupled to a fixed spectrograph, model Shamrock 163i, also from Andor. Phenazine (standard) was used at O.D. = 0.6 in chloroform. The ΦΔ values were obtained by comparing the total area of the emission spectra for the reference and for each dye under study in the same solvent, with the same optical density at the excitation wavelength. […].

The nature of series [8]: SRB cytotoxicity in non-tumor porcine liver primary cell culture, dark and after irradiation. The format is cell-based. Particulars: pig, PLP2 porcine liver primary cell culture (non-tumor), non-tumor cells, mean ± SD. The method, then: as §1, §2
A cell culture was prepared from a freshly harvested porcine liver obtained from a local slaughter house, and it was designed as PLP2. Briefly, the liver tissues were rinsed in Hank’s balanced salt solution containing 100 U/mL penicillin and 100 µg/mL streptomycin and divided into 1×1 mm^3 explants to ensure that all liver cells were able to access the nutrients provided by the medium. Some of these explants were placed in 25 cm^2 tissue flasks in DMEM medium supplemented with 10% fetal bovine serum, 2 mM non-essential amino acids and 100 U/mL penicillin, […] streptomycin and incubated at 37 °C with a humidified atmosphere containing 5% CO2. The medium was changed every two days. Cultivation of the cells was continued with direct monitoring every two or three days using a phase contrast microscope. Before confluence was reached, cells were subcultured and plated in 96-well plates at a density of 1.0 × 10^4 cells/well, and cultivated in DMEM medium with 10% FBS, 100 U/mL penicillin and 100 µg/mL streptomycin [47]. The PLP2 cells were incubated with the squaraine dyes and submitted to the two independent processes—dark and irradiation—as described earlier for the human tumor cell lines. The SRB assay was performed according to the procedure previously described. The results were expressed in GI50 values. All the assays were performed in duplicate. Ellipticine was used as standard.

Bounds are passed on as bounds.

Turning to `CCN1C(=CC2=C(NCCO)C(=Cc3sc4cc(I)ccc4[n+]3CC)C2=O)Sc2cc(I)ccc21.[I-]` [Dye 5d, 3-Ethyl-2-{3-(3-ethyl-6-iodo-3H-benzothiazol-2-ylidenemethyl)-2-[(2-hydroxy-ethyl)amino]-4-oxocyclobut-2-enylidenemethyl}-6-iodobenzothiazol-3-ium iodide], the melting point is above 300 °C. Further, the “ΦF (fluorescence quantum yield)” value in [1] amounted to 0.11. In addition, in [2], the GI50 is above 25000 nM. Moreover, the GI50 in [3] (MCF7, light or radiation study, 0.5 h, Irradiated 30 min, halogen/tungsten lamp >500 nm) is 250 ± 40 nM. In [3] (MCF7, Dark), the GI50 is above 25000 nM. Further, the concentration for 50% growth inhibition (GI50) in series [4] (NCI-H460, light or radiation study, 0.5 h, Irradiated 30 min, halogen/tungsten lamp >500 nm) worked out at 890 ± 10 nM. Further, in series [4] (NCI-H460, Dark), the concentration for 50% growth inhibition (GI50) is above 25000 nM. Moreover, the 50% growth inhibitory concentration (GI50) in series [5] (HepG2, light or radiation study, 0.5 h, Irradiated 30 min, halogen/tungsten lamp >500 nm) came out at 380 ± 30 nM. The 50% growth inhibitory concentration (GI50) in [5] (HepG2, Dark) is above 25000 nM. Besides, in series [6] (Dark), the 50% growth inhibitory concentration (GI50) worked out at 1800 ± 100 nM. Moreover, the 50% growth inhibitory concentration (GI50) in series [6] (light or radiation study, 0.5 h, Irradiated 30 min, halogen/tungsten lamp >500 nm) came out at 190 ± 10 nM. The “Φ∆ (singlet oxygen generation quantum yield)” value in series [7] was determined as 0.19. This compound also yielded a GI50 in [8] (Dark) above 25000 nM. The same compound displayed a 50% growth inhibitory concentration (GI50) in series [8] (Irradiated 30 min) of 980 ± 20 nM.
